Assay results published in paper PMC12345723, “Valorization of Coffee Silverskin via Integrated Biorefinery for the Production of Bioactive Peptides and Xylooligosaccharides: Functional and Prebiotic Properties” (Foods, 2025).
Marks after values point to notes of the source that are not given here.

Key:
RAW 264.7 macrophages = conditions: cited from earlier work
Method: A peptide concentration of 200 µg/mL was selected based on preliminary cytotoxicity screening using RAW 264.7 macrophage cells, which confirmed that this dose was non-toxic under the experimental conditions.

[1] = ABTS radical scavenging assay; conditions: for Antioxidant Activity: ABTS, peptide 500 μM (table footnote), 30 min, absorbance 734 nm, mean ± SD, n = 3
Method: Antioxidant activity analysis was performed in the dark. DPPH, ABTS radical scavenging activity, and the ferric-reducing antioxidant power (FRAP) assay were determined following the method described by Jirarat et al. (2024). Concisely, samples were diluted using distilled water to the desired concentration. For the DPPH assay, a 500 μL sample was mixed with 500 μL of ethanolic DPPH solution (80 mg/L) for 60 min before measuring the absorbance at 517 nm. The ABTS radical (ABTS+) solution was prepared by incubating the mixture of 2.45 mM potassium persulfate solution and 7 mM ABTS solution (1:1, v/v) for 12–16 h. The deionized water was used for diluting the ABTS^+ solution to 0.70 ± 0.02 at an absorbance of […]. After that, the ABTS assay was performed by incubating a 50 μL sample with 850 μL of prepared ABTS^+ solution for 30 min, and the radical scavenging activity was determined by measuring the absorbance at 734 nm. Furthermore, the FRAP assay was performed by preparing the FRAP reagent, which consisted of 300 mM acetate buffer (pH 3.6), 20 mM FeCl3·6H2O, and 10 mM TPTZ in 40 mM HCl, mixed in a 10:1:1 volume ratio. Then, 100 μL of the sample was mixed with 900 μL the FRAP reagent and incubated for 30 min. […] The antioxidant capacity in all assays was expressed as micromoles of Trolox equivalents per liter (μmol TE/L) based on a Trolox standard curve.

RAW 264.7 cells = conditions: RAW 264.7, 24 h, 0–200 µg/mL, SRB assay
Method: The cytotoxicity of synthetic bioactive peptides was evaluated using the sulforhodamine B (SRB) colorimetric assay, as described by Vichai and Kirtikara. Briefly, RAW 264.7 murine macrophage cells were seeded at a 2 × 10^4 cells/well density in 96-well plates and incubated for 24 h. The cells were then treated with various concentrations of peptides (0–200 μg/mL) for an additional 24 h. After treatment, the cells were fixed with cold trichloroacetic acid (TCA) and stained with 0.4% (w/v) SRB in 1% (v/v) acetic acid. Unbound dye was removed by washing, and protein-bound SRB was solubilized using […] Tris base solution. Absorbance was measured at 520 nm using a microplate reader, and cell viability was calculated as a percentage relative to untreated control cells. Non-cytotoxic concentrations of the peptides were subsequently used for further investigation of their anti-inflammatory effects on LPS-induced nitric oxide (NO) production in RAW 264.7 cells.

[2] = test system: Dipeptidyl Peptidase-IV (DPP-IV); conditions: peptide 5000 μM; Gly-Pro-p-nitroanilide, Tris-HCl pH 8.0, 37 °C, 60 min; absorbance 385 nm; mean ± SD, n = 3
Method: The DPP-IV inhibitory activity was determined using a modified method based on Lacroix and Li-Chan [22]. Briefly, the synthetic peptide was diluted in 100 mM Tris-HCl buffer (pH 8.0) to a final concentration of 5000 μM. The reaction mixture was prepared in a 1.5 mL microcentrifuge tube by combining 75 μL of Gly-Pro-p-nitroanilide (1.59 mM), 50 μL of Tris-HCl buffer (pH 8.0), and 25 μL of the peptide sample. The mixture was pre-incubated at 37 °C for 10 min. Following pre-incubation, 50 μL of DPP-IV enzyme solution (0.01 U/mL) was added, and the reaction was incubated at 37 °C for 60 min. The reaction was terminated by adding 300 μL of 99.8% ethanol. The absorbance of the reaction mixture was measured at 385 nm, and the DPP-IV inhibitory activity was calculated and expressed as a percentage of inhibition.
ACE inhibitory activity was assessed at a peptide concentration of 500 μM, while DPP-IV inhibitory activity and antioxidant activity (ABTS radical scavenging assay) were evaluated at a concentration of 5000 μM.

| Substance | cytotoxic effects (RAW 264.7 macrophages) | Antioxidant Activity [1] | cytotoxicity (RAW 264.7 cells) | DPP-IV Inhibition [2] | ABTS radical scavenging activity ([1]; peptide 5000 μM as printed in the text) [%] |
| --- | --- | --- | --- | --- | --- |
| DYKKY [peptide derived from whey protein hydrolysates] | no cytotoxic effects |  |  |  |  |
| FDYGKY [phenylalanine-aspartic acid-tyrosine-glycine-lysine-tyrosine] |  | 50 ± 1 ^a % | non-toxic | 0% |  |
| FLGY [phenylalanine-leucine-glycine-tyrosine] |  | 48 ± 1 ^a % | non-toxic | 19 ± 1 ^a % | 48 |
| GTWY [peptide derived from whey protein hydrolysates] | no cytotoxic effects |  |  |  |  |
| phenylalanine-tyrosine-aspartic acid-threonine-tyrosine-tyrosine [FYDTYY] |  |  | non-toxic | 18 ± 3 ^a % |  |
